Assay results published in article PMC10817170, “Effect of an NHE3 inhibitor in combination with an NPT2b inhibitor on gastrointestinal phosphate absorption in Rodent models” (PLOS ONE, 2024).
pIC50: −log10 of the molar value.

Key:
Human Pit-2 = molecular target: T1, Human Pit-2 (Homo sapiens, UniProt Q08357); experiment: Pit-2 activity assay (33P phosphate uptake in CHO cells); format: cell-based; settings: n=1
T1 construct: expressed in transfected cells; host or cells: CHO cells, constitutive expression
T1 sequence (Q08357 1-652): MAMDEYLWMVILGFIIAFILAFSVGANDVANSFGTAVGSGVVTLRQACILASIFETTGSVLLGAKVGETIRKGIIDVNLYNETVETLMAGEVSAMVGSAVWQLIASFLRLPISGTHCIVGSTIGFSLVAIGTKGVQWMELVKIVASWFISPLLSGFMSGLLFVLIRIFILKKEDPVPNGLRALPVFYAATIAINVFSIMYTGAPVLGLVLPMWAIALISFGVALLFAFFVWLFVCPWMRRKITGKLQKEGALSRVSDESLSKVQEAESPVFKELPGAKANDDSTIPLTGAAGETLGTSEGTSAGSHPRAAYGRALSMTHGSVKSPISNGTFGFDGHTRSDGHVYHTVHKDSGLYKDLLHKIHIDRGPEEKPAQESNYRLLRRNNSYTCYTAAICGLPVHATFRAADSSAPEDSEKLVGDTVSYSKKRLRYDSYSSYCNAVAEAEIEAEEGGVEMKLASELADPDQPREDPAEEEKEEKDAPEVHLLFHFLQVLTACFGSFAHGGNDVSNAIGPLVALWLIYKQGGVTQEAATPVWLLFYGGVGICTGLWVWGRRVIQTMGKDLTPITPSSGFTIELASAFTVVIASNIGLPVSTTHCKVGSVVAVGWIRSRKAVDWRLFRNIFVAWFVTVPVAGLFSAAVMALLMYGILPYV
Experimental: (§1) Generation of constitutive human Pit-2 and SGLT1 overexpressing CHO cells and activity assays measuring the uptake of ^33P phosphate for 45 minutes at 20°C for Pit-2 and ^14C-α-methyl-D-glucopyranoside for 120 minutes at 37°C for SGLT1, were also described previously.

Human SGLT1 = molecular target: T2, Human SGLT1 (Homo sapiens, UniProt P13866); experiment: SGLT1 activity assay (14C-alpha-methyl-D-glucopyranoside uptake in CHO cells); format: cell-based; settings: geometric mean, n=4
T2 construct: expressed in transfected cells; host or cells: CHO cells, constitutive expression
T2 sequence (P13866 1-664): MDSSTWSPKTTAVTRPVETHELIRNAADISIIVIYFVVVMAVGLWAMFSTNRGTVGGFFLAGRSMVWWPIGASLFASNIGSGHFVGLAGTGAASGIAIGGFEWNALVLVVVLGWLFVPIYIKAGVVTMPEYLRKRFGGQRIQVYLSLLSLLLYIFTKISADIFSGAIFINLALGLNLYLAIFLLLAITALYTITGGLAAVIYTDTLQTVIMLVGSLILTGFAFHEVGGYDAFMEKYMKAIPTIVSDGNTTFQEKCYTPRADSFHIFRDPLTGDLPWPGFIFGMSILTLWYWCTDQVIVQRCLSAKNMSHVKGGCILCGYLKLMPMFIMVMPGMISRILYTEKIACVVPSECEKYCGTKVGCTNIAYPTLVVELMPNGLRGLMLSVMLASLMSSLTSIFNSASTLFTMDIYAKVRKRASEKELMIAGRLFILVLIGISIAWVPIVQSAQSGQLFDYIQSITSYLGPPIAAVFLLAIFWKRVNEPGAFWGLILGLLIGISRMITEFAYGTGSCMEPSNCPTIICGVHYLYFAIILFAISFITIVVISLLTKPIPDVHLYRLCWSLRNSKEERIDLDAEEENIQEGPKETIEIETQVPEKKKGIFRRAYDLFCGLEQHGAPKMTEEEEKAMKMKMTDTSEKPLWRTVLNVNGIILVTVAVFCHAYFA
Experimental: as §1

[1] = system: acute phosphate uptake into plasma; experiment: Acute radiolabeled phosphate uptake into plasma in mice; format: in vivo
Experimental: A dosing solution for a 10 mg/kg dose of LY3304000 using a 10 mL/kg dosing volume was made in 1% HEC vehicle. The subsequent dosing solutions for 3, 1, 0.3, 0.1, 0.03, 0.01, 0.003, and 0.001 mg/kg were prepared by serial dilutions with HEC. A Radiolabeled Phosphate Dosing Solution was made in a 16.25 mM Na2HPO4, 0.9% saline, pH 7.4, solution with the addition of about 2.5 μCi/mL radioactive phosphate (H3^33PO4, PerkinElmer) and filtered before dosing. Following 12-hour fasting with access to water, male SD rats were orally dosed at 10 mL/kg with either vehicle or varying doses of LY3304000. Fifteen minutes later, 2 mL of the Radiolabeled Phosphate Dosing Solution was dosed by oral gavage. This dose of phosphate was chosen because it approximates the rat equivalent to the amount of bioavailable phosphate in a human meal, 4 mg/kg phosphorus, or 320 mg phosphorus for an 80 kg person on a phosphate restricted diet. Fifteen minutes later, blood was collected by cardiac stick, and plasma was prepared. Radioactivity (dpm) in 50 μL plasma was measured by scintillation counting. To determine the total radioactivity dosed to each rat, the radioactivity in two 10-μL samples of the Radiolabeled Phosphate Dosing Solution was measured by scintillation counting. To calculate the total radioactivity recovered in plasma, it was assumed that total blood volume constitutes about 60% of the body weight and plasma constitutes about 55% of the total blood. The mole amount of phosphate uptake was calculated as the percentage of administered radiolabeled phosphate recovered in the plasma of vehicle or LY3304000 treated rats multiplied by total phosphate amount in the radiolabeled phosphate dosing solution. ED50 values were then determined with a 4-parameter logistic curve fitting model using GraphPad Prism. A 15-minute time point, post phosphate dosing, was chosen for collecting blood in the acute phosphate uptake studies in rats and mice (see below) to capture the initial rate of phosphate absorption. We wanted to avoid measurements at longer time points when plasma radiolabeled phosphate appears to be at a steady state. LY3304000 dosing solution and Radioactive Phosphate Dosing Solution were made as described above. Following 12-hour fasting with access to water, male C57Bl/6 mice were dosed orally at 10 mL/kg with either vehicle or varying doses of LY3304000. Fifteen minutes later, 200 μL of the Radiolabeled Phosphate Dosing Solution was dosed by oral gavage. Fifteen minutes later, blood was collected by cardiac stick, and plasma was prepared. The measurement of acute phosphate uptake was determined as described above for rats.

[2] = system: Madin-Darby Canine Kidney (MDCK) cell; experiment: MDCK cell uni-directional permeability assay; format: in vitro ADME; settings: 20 µM, one hour, 24-well format
Experimental: LY3304000 has very low in vitro cell permeability. In a standard Madin-Darby Canine Kidney (MDCK) cell uni-directional permeability assay, measuring the percentage A to B (% A-B) transport in a 24-well format, the % A-B of LY330400 transport is 0.16 % at 20 µM for the assay duration of one hour.

SMILES: CN1Cc2c(Cl)cc(Cl)cc2[C@H](c2cccc(S(=O)(=O)NCCOCCOCCN/C(=N\C(N)=O)NCCCCN/C(=N/C(N)=O)NCCOCCOCCNS(=O)(=O)c3cccc([C@@H]4CN(C)Cc5c(Cl)cc(Cl)cc54)c3)c2)C1.Cl.Cl [LY3304000, (Z)-[[4-[[(Z)-N’-carbamoyl-N-[2-[2-[2-[[3-[(4S)-6,8-dichloro-2-methyl-3,4-dihydro-1H-isoquinolin-4-yl]phenyl]sulfonylamino]ethoxy]ethoxy]ethyl]carbamimidoyl]amino]butylamino]-[2-[2-[2-[[3-[(4S)-6,8-dichloro-2-methyl-3,4-dihydro-1H-isoquinolin-4-yl]phenyl]sulfonylamino]ethoxy]ethoxy]ethylamino]methylene]urea dihydrochloride]
- pIC50 (Human Pit-2): < 4.00
- pIC50 (Human SGLT1): 5.18
- ED50 ([1]; Mus musculus, po, 0.25 h, oral, plasma 15 min post 33P phosphate, read-out: ED50 (increase of phosphate uptake)): 0.48 mg/kg
- Emax, Pi uptake ([1]; curve fit): 80.01 nmol
- radiolabeled phosphate recovered in plasma ([1]; highest doses tested, vehicle 39 nmoles): 78 nmol
- ED50 (increase of phosphate uptake) ([1]; oral, plasma 15 min post 33P phosphate): 0.479 mg/kg
- percentage A to B (% A-B) transport [2]: 0.16%
